Test results published in patent US12558342B2, “2-[2-({12,12-dimethyl-4-oxo-6-phenyl-3,11-dioxatricyclo[8.4.0.0,2,7]tetradeca-1,5,7,9-tetraen-8-yl}oxy)acetamido]benzamide and derivatives as inhibitor of clock:bmal1 interaction for the treatment of circadian rhythm diseases and disorders” (KOC UNIVERSITESI, priority 2019, dated 2026).

Columns and labels:
[1] = system: Bmal1, Clock, and Cry1; assay: In vivo study in mouse liver, qPCR; conditions: 25 mg/kg i.p., 6 h
Procedure: (§1) Male C57BL/6J mice, 8 weeks of age, weighing 18-24 g were treated with two different single doses of CLK8 (25 mg/kg n=5 per each dose) intraperitoneally. Control mice (n=3) were only treated with vehicle (DMSO:Cremophor EL: 0.9% NaCl; 2.5:15:82.5, v/v, i.p.). Water and food were provided ad libitum throughout the experiments. Six hours after injection, mice were sacrificed by cervical dislocation. Liver tissues were removed, frozen in liquid nitrogen and stored at −80° C. until further processing.

[2] = system: wild type MDA MB231 cells; assay: Bmal1::dluc rhythm in wild type MDA MB231 cells; format: cell-based
Procedure: We used Bmal1::dluc U2-OS and Per1::dluc NIH 3T3, and continuously monitored the bioluminescence to record circadian rhythm. This experiment was performed in 96-well plates (triplicates) and 35-mm dishes (duplicates) in the secondary screen and detailed characterization steps respectively. Briefly, cells were seeded to reach confluency. A day after, the medium was replaced with DMEM containing 0.1 μM Dexamethasone to synchronize cells. […] The 96-well plates were covered and bioluminescence was monitored by Synergy H1 Hybrid Multi-Mode Reader every 32 minutes. […] Bioluminescence was recorded every 10 minutes for 4-6 days. […] The first day's data was excluded from the analysis due to transient perturbations of luminescence after the medium change.
HEK 293T cells at 75-85% confluency were transfected with […] of pLV6-Bmal-luc plasmid, 9 ng of pCMV-AR8.2dvpr packaging vector and 1 ng of pCMV-VSVG envelope vector for 16 h. […] At 72-hour post-transduction, the circadian rhythms of cells monitored using Lumicycle.
We used Bmal1::dluc U2-OS and Per1::dluc NIH 3T3, and continuously monitored the bioluminescence to record circadian rhythm. […] The 96-well plates were covered and bioluminescence was monitored by Synergy H1 Hybrid Multi-Mode Reader every 32 minutes. […] Bioluminescence was recorded every 10 minutes for 4-6 days. […]

[3] = system: U2OS cells; assay: MTT-based cell cytotoxicity test; parameters: species or system human
Procedure: The toxicity of the compounds was assessed by MTT-based assay using immortalized human osteosarcoma (U2OS) cells treated with different compounds at different concentrations. Cell viability was measured with MTT-based cell cytotoxicity test. U2OS cells were seeded on 96-well plate with 4×10^3 cell/well density. Two days later, the cells were treated with an appropriate amount of different small molecules. Control cells were treated with 0.5% vehicle (DMSO). After 48 hours, the media was replaced with a 20% solution of 5 mg/ml MTT in DMEM. After 4 hours of incubation, the media was discarded and a 1:1 solution of ethanol and DMSO was used to dissolve the formazan crystals. Cell viability was measured as stated in Sigma-Aldrich product information.
Compounds with a relative cell viability of less than 80% at 1.25 μM were eliminated. The final concentration of a non-toxic compounds for in vitro experiments was set to the maximum concentration at which it had at least 80% relative cell viability. Ultimately, 72 compounds were statistically identified as non-toxic and used for the next characterization step.

[4] = system: CLOCK, BMAL1 and CRY1; assay: In vivo study in mouse liver, Western blot; conditions: 25 mg/kg i.p., 6 h
Procedure: as §1

SMILES: CC1(C)CCc2c(cc(OCC(=O)Nc3ccccc3C(N)=O)c3c(-c4ccccc4)cc(=O)oc23)O1 [CLK8, 2-[2-({12,12-dimethyl-4-oxo-6-phenyl-3,11-dioxatricyclo [8.4.0.0,2,7]tetradeca-1,5,7,9-tetraen-8-yl}oxy)acetamido] benzamide]
- Cry1 gene's transcriptional level (liver) [1]: significantly changed
- amplitude of circadian rhythm [2]: enhance amplitude
- toxicity to the U2OS cell line [3]: not toxic
- CLOCK abundance in the nucleus (liver) [4]: significantly low
- CLOCK levels in whole liver cell lysate [4]: decrease
- cytosolic and nuclear BMAL1 and CRY1 (liver) [4]: unaltered
- levels of BMAL1 and CRY1 in whole liver cell lysate [4]: unaltered
